Source: patent US20250281503A1, “DO3A-BASED ANTITHROMBOTIC AGENT OR HEMOLYTIC AGENT CONTAINING GADOLINIUM COMPLEX” (ETNOVA THERAPEUTICS CORP., priority 2022, published 2025)

Test system: Rat platelets
Experiment: Platelet aggregation inhibition (4-channel platelet lumi-aggregometer)
Format: cell-based
Details: compound 100 μM, compared to control (vehicle), FIG. 2
Experimental: In order to evaluate the platelet aggregation activity of MBP-11902 according to Present Example 1 of the present disclosure, the platelet aggregation was activated in rat plasma with platelet aggregation factors and agonists, thrombin, collagen, ADP (adenosine diphosphate), U46619 (thromboxane A2 agonist), and PMA (phorbol-12-myristate-13-acetate), and then, the rat plasma was pretreated with vehicle (distilled water) and various doses (100, 300, and 500 μM) of MBP-11902, and then a 4-channel platelet lumi-aggregometer (Chronolog Corp, Havertown, PA) was used to measure the value indicating the platelet aggregation level, and the results are shown in FIG. 1. […]
Rat platelets were placed in HEPES-Tyrode buffer at a concentration of 3×10^8 cells/mL and pretreated with the vehicle (distilled water) and various doses (100, 300, and 500 μM) of MBP-11902 at 37° C. for 15 minutes, and then activated with collagen, thrombin, ADP, U46619 (endoperoxide/thromboxane analogs), and PMA (PKC activator), which are known as agonists in the platelet aggregation system. The platelet aggregation was induced at 1,000 rpm in a platelet aggregation system (Chronolog Corp, Havertown, PA) at 37° C. and then, the platelet aggregation level was measured.

## O=C(O)c1cc(-c2ccc(F)cc2F)ccc1O [NSAID, Diflunisal]
Collagen 1 μg/mL
  platelet aggregation induced by collagen (comparative evaluation): significantly inhibit
Thrombin 0.05 U/ml
  platelet aggregation induced by thrombin (comparative evaluation): significantly inhibit
